# In PubChem BioAssay (NCI):
#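 48-hour exposure; five concentrations; linearly interpolated endpoints. Abbreviation: GI50, concentration required for 50% inhibition of growth. The concentration for full growth arrest is given as TGI.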
# Columns and labels:
# Assay in all cases: DTP human tumour cell line panel, 48 h
# 786-0 renal = test system: 786-0 renal
# A498 renal = test system: A498 renal
# A549 NSCLC = test system: A549 NSCLC
# ACHN renal = test system: ACHN renal
# BT-549 breast = test system: BT-549 breast
# CAKI-1 renal = test system: CAKI-1 renal
# COLO 205 colon = test system: COLO 205 colon
# DU-145 prostate = test system: DU-145 prostate
# EKVX NSCLC = test system: EKVX NSCLC
# HCC-2998 colon = test system: HCC-2998 colon
# HCT-116 colon = test system: HCT-116 colon
# HCT-15 colon = test system: HCT-15 colon
# HL-60(TB) leukemia = test system: HL-60(TB) leukemia
# HOP-62 NSCLC = test system: HOP-62 NSCLC
# HOP-92 NSCLC = test system: HOP-92 NSCLC
# HS 578T breast = test system: HS 578T breast
# HT29 colon = test system: HT29 colon
# IGROV1 ovarian = test system: IGROV1 ovarian
# K-562 leukemia = test system: K-562 leukemia
# KM12 colon = test system: KM12 colon
# LOX IMVI melanoma = test system: LOX IMVI melanoma
# M14 melanoma = test system: M14 melanoma
# MALME-3M melanoma = test system: MALME-3M melanoma
# MCF7 breast = test system: MCF7 breast
# MDA-MB-231 breast = test system: MDA-MB-231 breast
# MDA-MB-435 = test system: MDA-MB-435
# MOLT-4 leukemia = test system: MOLT-4 leukemia
# NCI-H226 lung = test system: NCI-H226 lung
# NCI-H23 lung = test system: NCI-H23 lung
compound,measurement,setting,value
O=C(NCCN1CCOCC1)Nc1ccc(-c2cc3c(Nc4ccc(Oc5cccc(C(F)(F)F)c5)c(Cl)c4)ncnc3s2)cc1,GI50,786-0 renal,0.67 µM
same,TGI,786-0 renal,1.6 µM
same,GI50,A498 renal,2.04 µM
same,TGI,A498 renal,7.79 µM
same,GI50,A549 NSCLC,1.04 µM
same,TGI,A549 NSCLC,2.42 µM
same,GI50,ACHN renal,1.74 µM
same,TGI,ACHN renal,6.06 µM
same,GI50,BT-549 breast,2.32 µM
same,TGI,BT-549 breast,11.1 µM
same,GI50,CAKI-1 renal,1.5 µM
same,TGI,CAKI-1 renal,5.74 µM
same,GI50,COLO 205 colon,1.25 µM
same,TGI,COLO 205 colon,2.95 µM
same,GI50,DU-145 prostate,2.93 µM
same,TGI,DU-145 prostate,9.26 µM
same,GI50,EKVX NSCLC,2.27 µM
same,TGI,EKVX NSCLC,8.61 µM
same,GI50,HCC-2998 colon,1.19 µM
same,TGI,HCC-2998 colon,3.77 µM
same,GI50,HCT-116 colon,1.49 µM
same,TGI,HCT-116 colon,5.05 µM
same,GI50,HCT-15 colon,0.95 µM
same,TGI,HCT-15 colon,1.92 µM
same,GI50,HL-60(TB) leukemia,1.26 µM
same,TGI,HL-60(TB) leukemia,3.37 µM
same,GI50,HOP-62 NSCLC,1.46 µM
same,TGI,HOP-62 NSCLC,5.93 µM
same,GI50,HOP-92 NSCLC,1.66 µM
same,TGI,HOP-92 NSCLC,7.43 µM
same,GI50,HS 578T breast,1.16 µM
same,TGI,HS 578T breast,3.84 µM
same,GI50,HT29 colon,0.896 µM
same,TGI,HT29 colon,1.69 µM
same,GI50,IGROV1 ovarian,1.64 µM
same,TGI,IGROV1 ovarian,6.85 µM
same,GI50,K-562 leukemia,0.706 µM
same,TGI,K-562 leukemia,3.31 µM
same,GI50,KM12 colon,1.02 µM
same,TGI,KM12 colon,2.12 µM
same,GI50,LOX IMVI melanoma,0.841 µM
same,TGI,LOX IMVI melanoma,1.58 µM
same,GI50,M14 melanoma,1.16 µM
same,TGI,M14 melanoma,3.24 µM
same,GI50,MALME-3M melanoma,0.832 µM
same,TGI,MALME-3M melanoma,1.57 µM
same,GI50,MCF7 breast,1.11 µM
same,TGI,MCF7 breast,3.27 µM
same,GI50,MDA-MB-231 breast,1.07 µM
same,TGI,MDA-MB-231 breast,2.54 µM
same,GI50,MDA-MB-435,0.987 µM
same,TGI,MDA-MB-435,2 µM
same,GI50,MOLT-4 leukemia,1.22 µM
same,TGI,MOLT-4 leukemia,3.75 µM
same,GI50,NCI-H226 lung,3.18 µM
same,TGI,NCI-H226 lung,17.1 µM
same,GI50,NCI-H23 lung,1.51 µM
